This is an account of results in patent US6608058B2, “6-methylnicotinamide derivatives as antiviral agents” (Dong Wha Pharm. Ind. Co., Ltd., priority 2000, dated 2003).

The structures appear in SMILES notation.

One experiment relates to HBV polymerase. Put plainly: Inhibitory effect on the in vitro activities of HBV polymerase in reverse transcription (ELISA-type). In kind it is biochemical. The source says:
The present inventors submitted application for a patent concerning HBV polymerase genetically expressed in and separated from E. coli, the process of its preparation, and the method to measure the enzyme activities (KR 94-3918, KR 96-33998). In the present experiments HBV polymerase was used which had been expressed in E. coli as stated above.
The method used in the present invention to measure in vitro reverse transcribing activities of HBV polymerase is as follows. Basic principles are the same as those for ELISA, nucleotides with biotin- or digoxigenin- group are included as substrates and anti-DIG antibodies attached to peroxidase enzyme recognize the polymerized substrates.
To the wells coated with streptavidin, 20 μl of HBV polymerase, 20 μl of reaction mixture (10 μM each of DIG-UTP and Biotin-UTP, 46 mM Tris-HCl, 266 mM KCl, 27.5 mM MgCl2, 9.2 mM DTT substrate/primer hybrid), and 20 μl of test compound (added to […]) were added and allowed to react at 22° C. for 15 hrs. During this reaction, HBV polymerase catalyzes DNA synthesis, and digoxigenin and biotin attached to nucleotides form bonds to streptavidin coated on the bottom of wells. When the reaction was done, each well was washed with 250 μl of cleaning buffer (pH 7.0) for 30 seconds, which was repeated five times to remove remaining impurities. 200 μl of anti-DIG-POD antibody was added to each well and allowed to react for 1 hr at 37° C., and the wells were washed with cleaning buffer to remove impurities. 200 μl each of ABTS™, a substrate of peroxidase, was then added and allowed to react at room temperature for 30 min. Absorbancy was measured at 405 nm using ELISA reader.
The inhibitory effects in HBV polymerase activities for reverse transcription were calculated using the group without test compound as a control and the results are shown in Table 1 as follows.
Background: ELISA stands for enzyme-linked immunosorbent assay.

The target of experiment [1] is T1, HIV reverse transcriptase (Human immunodeficiency virus type 1 group M subtype B, UniProt P04585).
T1 construct: purchased Boehringer Mannheim
Put plainly: Inhibitory effect on the in vitro HIV reverse transcriptase activity (non-radioactive RT assay kit). In kind it is biochemical. The following applies: for inhibition at 0.1 µg/mL: 0.1 μg/ml; for inhibition at 1 µg/mL: 1 μg/ml. The protocol: Non-radioactive reverse transcriptase assay kit (Boehringer Mannheim) was used in the measurement of in vitro transcriptase activities. 20 μl (40 ng) of HIV reverse transcriptase and 20 μl of reaction mixture containing matrix-primer hybrid poly(A)oligo(dT)15, DIG(digoxigenin)-dUTP, biotin-dUTP, dTTP were added to wells coated with streptavidin, and the test compounds prepared were also added at the final concentrations of 0.1 and 1 μ/ml and allowed to react at 37° C. for 1 hr. At this time, DNA is formed from RNA by the action of HIV reverse transcriptase, forming bonds with streptavidin coated on the bottom of wells through digoxigenin and biotin moieties attached to nucleotides.
When the reaction was completed, each well was washed with 250 μl of washing buffer (pH 7.0) for 30 sec. five times to remove remaining impurities. 200 μl of anti-DIG-POD […] was added to each well, then the mixture was allowed to react at 37° C. for 1 hr and washed as above to remove impurities. 200 μl of ABTS™, a substrate for peroxidase, was added to each well and the mixture was allowed to react at room temperature for 30 min. Absorbance at 405 nm was measured for each solution using ELISA reader to determine the inhibitory effect on the HIV reverse transcriptase activities. The percentage of inhibition in the activity of HIV reverse transcriptase was calculated using the group without test compound as control and the results are represented in Table 3.

For `Cc1ccc(C(=O)NCCCn2ccnc2)c(Nc2ccc3cn[nH]c3c2)n1` [Example 20, N-[3-(1H-1-imidazolyl)propyl]-2-(1H-6-indazolylamino)-6-methylnicotinamide], the “Inhibitory activity on HBV-RT (%)” value is 47% with HBV polymerase (0.01 μg/ml), 59% in the experiment on HBV polymerase (0.1 μg/ml) and 88% in the experiment with HBV polymerase (1 μg/ml). In addition, the inhibition at 0.1 µg/mL in experiment [1] was 47%. The inhibition at 1 µg/mL in experiment [1] is 88%.
`Cc1ccc(C(=O)N[C@H]2CC[C@H](O)CC2)c(Nc2ccc3[nH]ncc3c2)n1` [Example 3, N-(Trans-4-hydroxy-1-cyclohexyl)-2-(1H-5-indazolylamino)-6-methylnicotinamide]: the “Inhibitory activity on HBV-RT (%)” value in the experiment on HBV polymerase (0.01 μg/ml) is 53%; in the experiment on HBV polymerase (0.1 μg/ml), 61%; in the experiment with HBV polymerase (1 μg/ml) it was 80%. The inhibition at 0.1 µg/mL in experiment [1] came out at 51%. Also, the inhibition at 1 µg/mL in experiment [1] is 80%.
On to `Cc1ccc(C(=O)N(N)c2ccccn2)c(Nc2ccc3cn[nH]c3c2)n1` [Example 21, 2-(1H-6-indazolylamino)-6-methyl-N-(2-pyridyl)-3-pyridinecarbohydrazide], for which the results for the “Inhibitory activity on HBV-RT (%)” value in the experiment on HBV polymerase (0.01 μg/ml), in the experiment on HBV polymerase (0.1 μg/ml) and in the experiment with HBV polymerase (1 μg/ml) were 30%, 50% and 86%, respectively. Further, in experiment [1], the inhibition at 0.1 µg/mL came out at 49%. In experiment [1], the inhibition at 1 µg/mL worked out at 75%.
For the compound `Cc1ccc(C(=O)NC2CC2)c(Nc2ccc3cn[nH]c3c2)n1` [Example 11, N-cyclopropyl-2-(1H-6-indazolylamino)-6-methylnicotinamide], the entries for the “Inhibitory activity on HBV-RT (%)” value in the experiment with HBV polymerase (0.01 μg/ml), with HBV polymerase (0.1 μg/ml) and with HBV polymerase (1 μg/ml) were 32%, 54% and 84%, respectively. In experiment [1], the inhibition at 0.1 µg/mL was 45%. Also, the inhibition at 1 µg/mL in experiment [1] is 82%.

In general, inhibition refers to the percentage by which the read-out fell short of the control.
